Earlier results as cited in patent publication US11033592B2, “Composition for the prevention and/or treatment of cardiovascular diseases” (priority 2016, dated 2021).

System: first occurrence of cardiovascular events
Details: CRESTOR 20 mg versus placebo, P<0.00001

CC(C)c1nc(N(C)S(C)(=O)=O)nc(-c2ccc(F)cc2)c1/C=C/[C@@H](O)C[C@@H](O)CC(=O)O [CRESTOR, rosuvastatin]
relative reduction in risk of a major cardiovascular event: 44%
